Measurements from US20240252496A1, “SELECTIVE HYPOTHALAMUS PERMEABLE HDAC6 INHIBITORS FORTREATMENT OF LEPTIN-RESISTANT OBESITY” (The Children’s Medical Center Corporation, priority 2022, published 2024).

Assays:
[1] = target: T1, HDAC6 (Mus musculus (Mouse), UniProt Q9Z2V5); test: LepRb acetyl-lysine immunoblotting in HEK293 cells; assay type: cell-based; details: 200 nM, 0.5-3 h
Protocol: HEK293 cells were transfected with the plasmids and were treated with vehicle or ACY775. Subsequently Flag immunoprecipitation was used to pull down LepRb followed by Ac^Lys or Flag immunoblotting.
To test whether HDAC6 can deacetylate LepRb, HEK293 cells were transfected with plasmids (LepRb-Flag, HA-p300 and HDAC6-myc). LepRb was immunoprecipitated by Flag antibodies, which was followed by acetyl-lysine (Ac^Lys) or immunoblottings.
Next, cells were transfected with plasmids (LepRb-Flag, HA-p300 and HDAC6-myc) and subsequently treated with ACY775 ([…]) for 0.5, 1, 2 and 3 h. […] Next, to investigate whether HDAC6 has any effect on LepRb tyrosine phosphorylation, which is indicative of LepRb activation, HEK 293 cells were transfected with LepRb and HDAC6-Myc plasmids in the indicated order and the cells stimulated with leptin (200 ng/ml) for 10 and 60 minutes. The Flag immunoprecipitates were exposed to phospho-tyrosine (p^Tyr) immunoblotting.

[2] = target: T1, HDAC6; test: HDAC6 inhibition in hypothalamus and other brain regions (Ac-tubulin); parameters: species or system mice; details: in vivo

T1 sequence (Q9Z2V5 whole entry): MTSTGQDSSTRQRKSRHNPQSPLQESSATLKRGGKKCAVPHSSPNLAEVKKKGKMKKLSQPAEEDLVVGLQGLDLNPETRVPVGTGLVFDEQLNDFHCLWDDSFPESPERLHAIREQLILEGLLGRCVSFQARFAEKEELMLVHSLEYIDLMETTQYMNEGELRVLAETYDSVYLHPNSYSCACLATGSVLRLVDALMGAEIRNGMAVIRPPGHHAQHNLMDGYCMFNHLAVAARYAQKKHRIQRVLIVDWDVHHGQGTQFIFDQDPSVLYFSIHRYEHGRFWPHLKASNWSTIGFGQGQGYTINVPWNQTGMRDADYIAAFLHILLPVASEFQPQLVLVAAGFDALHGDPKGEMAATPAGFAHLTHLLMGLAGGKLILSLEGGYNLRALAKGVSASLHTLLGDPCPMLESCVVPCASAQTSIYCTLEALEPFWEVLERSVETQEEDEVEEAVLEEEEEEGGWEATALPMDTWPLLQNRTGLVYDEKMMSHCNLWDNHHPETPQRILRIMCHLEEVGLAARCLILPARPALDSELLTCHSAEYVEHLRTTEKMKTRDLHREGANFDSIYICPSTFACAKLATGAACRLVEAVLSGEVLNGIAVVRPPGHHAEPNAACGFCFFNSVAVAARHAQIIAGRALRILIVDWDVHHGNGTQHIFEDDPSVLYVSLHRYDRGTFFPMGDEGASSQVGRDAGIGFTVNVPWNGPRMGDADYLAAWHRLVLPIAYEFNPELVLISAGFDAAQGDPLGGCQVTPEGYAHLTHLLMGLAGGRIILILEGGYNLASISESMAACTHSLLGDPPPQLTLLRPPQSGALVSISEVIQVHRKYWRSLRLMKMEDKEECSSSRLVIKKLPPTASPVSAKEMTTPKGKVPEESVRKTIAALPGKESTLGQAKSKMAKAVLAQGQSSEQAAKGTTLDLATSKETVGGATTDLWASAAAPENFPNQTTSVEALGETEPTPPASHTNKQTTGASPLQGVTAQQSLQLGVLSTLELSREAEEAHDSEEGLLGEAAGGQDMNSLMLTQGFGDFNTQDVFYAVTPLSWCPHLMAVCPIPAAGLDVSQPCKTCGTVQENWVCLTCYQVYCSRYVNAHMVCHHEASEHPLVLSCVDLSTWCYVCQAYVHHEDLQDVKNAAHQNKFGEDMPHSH

Row | Compound | deacetylation of LepRb [1] | HDAC6 inhibition in the hypothalamus [2]
1 | O=C(NO)c1cnc(NC2(c3cccc(F)c3)CCCCC2)nc1 [ACY775, 2-[[1-(3-fluorophenyl)cyclohexyl]amino]-N-hydroxy-5-pyrimidinecarboxamide] | completely block deactylation of LepRb | 
2 | O=C(CCCCCCNC(=O)c1cnc(N(c2ccccc2)c2ccccc2)nc1)NO [Ricolinostat] |  | nor show HDAC6 inhibition in the hypothalamus
